From ChEMBL document CHEMBL6078647 (J Med Chem, 2024)
The source made the active and inactive calls. No cut-off for these calls is given here. Square brackets hold non-standard residues; d marks the D form. Peptide text beside a SMILES is read from it. * marks the point of attachment. ξ: configuration not given here. X1 = C[N+]1=C(/C=C/C=C2\N(CCCCCC(=O)*)c3ccccc3C2(C)C)C(C)(C)c2ccccc21; PEG2 = NCCOCCOCCC(=O)O; ξD = NC(CC(=O)O)C(=O)O

What was measured:
[1] = molecular target: T1, Type-1 angiotensin II receptor (Homo sapiens) (UniProt P30556); assay: (§1) Agonist activity at Flag-tagged AT1R (unknown origin) extracted from HEK293T cell membrane co expressing YPET-ARRB1 assessed as beta-arrestin 1 recruitment using NanoGlo as substrate preincubated for 30 mins followed by substrate addition for 10 mins by BRET assay; assay type: functional, cell membranes
T1 sequence (whole entry): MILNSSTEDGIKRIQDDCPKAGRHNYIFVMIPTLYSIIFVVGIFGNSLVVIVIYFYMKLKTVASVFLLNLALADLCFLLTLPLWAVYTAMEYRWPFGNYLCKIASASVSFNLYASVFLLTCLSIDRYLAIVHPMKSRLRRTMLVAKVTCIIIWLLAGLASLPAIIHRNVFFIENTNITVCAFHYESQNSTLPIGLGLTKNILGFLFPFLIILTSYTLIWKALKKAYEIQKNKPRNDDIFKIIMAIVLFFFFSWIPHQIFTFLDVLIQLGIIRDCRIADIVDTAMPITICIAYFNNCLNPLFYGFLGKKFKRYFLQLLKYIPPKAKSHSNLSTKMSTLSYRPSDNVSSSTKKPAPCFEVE

[2] = molecular target: T1, Type-1 angiotensin II receptor (Homo sapiens); assay: as §1, with “HEK293” for “HEK293T”, “recruitment at 1 uM by measuring maximum efficacy” for “recruitment”; assay type: functional, cell membranes; settings: filed as agonist
[3] = molecular target: T1, Type-1 angiotensin II receptor (Homo sapiens); assay: (§2) Agonist activity at Flag-tagged AT1R (unknown origin) extracted from HEK293 cell membrane co expressing YPET-ARRB2 assessed as beta-arrestin 2 recruitment using NanoGlo as substrate preincubated for 30 mins followed by substrate addition for 10 mins by BRET assay; assay type: functional, cell membranes
[4] = molecular target: T1, Type-1 angiotensin II receptor (Homo sapiens); assay: as §2, with “recruitment at 1 uM by measuring maximum efficacy” for “recruitment”; assay type: functional, cell membranes; settings: filed as agonist
[5] = molecular target: T1, Type-1 angiotensin II receptor (Homo sapiens); assay: Agonist activity at AT1R (unknown origin) extracted from HEK293 cell membrane coexpressing NLuc and Venus-miniG assessed as miniGq protein recruitment at 1 uM using NanoGlo as substrate preincubated for 30 mins followed by substrate addition for 10 mins by BRET assay; assay type: functional, cell membranes; settings: time 40.0 min
[6] = molecular target: T1, Type-1 angiotensin II receptor (Homo sapiens); assay: Induction of human NLuc-tagged AT1R (unknown origin) internalization in HEK293 cells co expressing venus-MP using NanoGlo as substrate preincubated for 30 mins followed by substrate addition for 10 mins by BRET assay; assay type: functional
[7] = test system: Cerebral artery; assay: Vaso-constriction activity in male wistar rat middle cerebral artery assessed as arterial contraction; assay type: functional, tissue-based
[8] = molecular target: T1, Type-1 angiotensin II receptor (Homo sapiens); assay: Binding affinity to human GFP-tagged AT1R (unknown origin) extracted from HEK293 cell membrane assessed as colocalization of AT1R in endocytic vesicles at 50 nM incubated for 30 mins by epifluorescence microscopic analysis; assay type: cell membranes; settings: filed as agonist
[9] = molecular target: T2, Type-2 angiotensin II receptor (Homo sapiens) (UniProt P50052); assay: Binding affinity to human GFP-tagged AT2R extracted from HEK293 cell membrane assessed as colocalization of AT2R in plasma membrane at 50 nM incubated for 30 mins by epifluorescence microscopic analysis; assay type: cell membranes; settings: filed as agonist
T2 sequence (whole entry): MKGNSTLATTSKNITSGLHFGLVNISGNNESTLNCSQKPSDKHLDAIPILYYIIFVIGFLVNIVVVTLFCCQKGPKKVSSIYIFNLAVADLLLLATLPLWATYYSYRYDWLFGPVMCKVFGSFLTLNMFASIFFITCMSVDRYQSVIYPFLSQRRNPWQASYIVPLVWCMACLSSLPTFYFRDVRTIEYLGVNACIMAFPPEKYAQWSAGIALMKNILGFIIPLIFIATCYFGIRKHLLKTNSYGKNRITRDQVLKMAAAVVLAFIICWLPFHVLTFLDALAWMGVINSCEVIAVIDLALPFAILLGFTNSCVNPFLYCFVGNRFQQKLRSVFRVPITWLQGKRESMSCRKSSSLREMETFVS

[10] = molecular target: T3, Type-1 angiotensin II receptor (Homo sapiens, UniProt P30556); assay: Binding affinity to human AT1R extracted from HEK293T cell membrane assessed as inhibition constant in presence of [125I][Sar1 Ile8]-angiotensin II by competitive radioligand binding assay; assay type: cell membranes
T3 sequence (P30556 whole entry): T1 sequence (whole entry)

[11] = molecular target: T4, Type-2 angiotensin II receptor (Homo sapiens, UniProt P50052); assay: Binding affinity to human AT2R extracted from HEK293T cell membrane assessed as inhibition constant in presence of [125I][Sar1 Ile8]-angiotensin II by competitive radioligand binding assay; assay type: cell membranes
T4 sequence (P50052 whole entry): T2 sequence (whole entry)

[12] = species on record: Homo sapiens; assay: Selectivity index, ratio of Ki for binding affinity to human AT1R extracted from HEK293T cell membrane in presence of [125I][Sar1 Ile8]-angiotensin II by competitive radioligand binding assay to Ki for binding affinity to human AT2R extracted from HEK293T cell membrane in presence of [125I][Sar1 Ile8]-angiotensin II by competitive radioligand binding assay
[13] = Fluorescence property of compound in HEPES buffer assessed as quantum yield; assay type: physicochemical
[14] = molecular target: T1, Type-1 angiotensin II receptor (Homo sapiens); assay: Agonist activity at Flag-tagged AT1R (unknown origin) extracted from HEK293 cell membrane assessed as increase in intracellular calcium at >100 nM incubated for 30 mins by microplate reader analysis; assay type: functional, cell membranes; settings: filed as agonist
[15] = test system: Cerebral artery; assay: Vaso-constriction activity in male wistar rat middle cerebral artery assessed as arterial contraction at 1 uM; assay type: functional, tissue-based
[16] = molecular target: T1, Type-1 angiotensin II receptor (Homo sapiens); assay: Binding affinity to human GFP-tagged AT1R (unknown origin) extracted from HEK293 cell membrane assessed as colocalization of AT1R in endocytic vesicles at 100 nM incubated for 30 mins by epifluorescence microscopic analysis; assay type: cell membranes; settings: filed as agonist
[17] = molecular target: T2, Type-2 angiotensin II receptor (Homo sapiens); assay: Binding affinity to human GFP-tagged AT2R extracted from HEK293 cell membrane assessed as colocalization of AT2R in plasma membrane at 30 nM incubated for 30 mins by epifluorescence microscopic analysis; assay type: cell membranes; settings: filed as agonist
[18] = molecular target: T2, Type-2 angiotensin II receptor (Homo sapiens); assay: Binding affinity to GFP-tagged AT2R (unknown origin) extracted from HEK293 cell membrane assessed as increase in median red fluorescence intensity incubated for 15 mins by flow cytometric analysis; assay type: cell membranes; settings: filed as agonist
[19] = test system: Cerebral artery; assay: Vaso-constriction activity in male wistar rat middle cerebral artery assessed as arterial contraction at 1 uM in presence of losartan; assay type: functional, tissue-based

CC[C@H](C)[C@H](NC(=O)[C@H](Cc1ccc(O)cc1)NC(=O)[C@@H](NC(=O)[C@H](CCCN=C(N)N)NC(=O)CNC)C(C)C)C(=O)N[C@@H](Cc1c[nH]cn1)C(=O)N1CCC[C@H]1C(=O)N[C@@H](C)C(=O)O
Activity ([1]; HEK293, filed as agonist): Dose-dependent-effect
Emax [2]: 0.031 a.u.
Activity ([3]; filed as agonist): Dose-dependent-effect
Emax [4]: 0.043 a.u.
Activity [5]: inactive
Activity ([6]; filed as agonist): Active
Activity [7]: inactive
Activity [8]: Active
Activity [9]: Active

CC[C@H](C)[C@H](NC(=O)[C@H](Cc1ccc(O)cc1)NC(=O)[C@@H](NC(=O)[C@H](CCCNC(=N)N)NC(=O)CN(C)C(=O)CCCCCN1/C(=C\C=C\C2=[N+](C)c3ccccc3C2(C)C)C(C)(C)c2ccccc21)C(C)C)C(=O)N[C@@H](Cc1c[nH]cn1)C(=O)N1CCC[C@H]1C(=O)N[C@@H](C)C(=O)O
Ki ([10]; read-out: Ki): 5.43 µM
Ki ([10]; read-out: pKi (converted)): 5.13 µM
Ki ([11]; read-out: Ki): 0.00423 µM
Ki ([11]; read-out: pKi (converted)): 0.00331 µM
Ratio Ki [12]: 1280
Activity [13]: 0.076
Activity ([5]; filed as agonist): Active
Activity [14]: Active
Activity [15]: Active
Activity [16]: Active; Scarce Colocalization Of Compound Was Observed
Activity [17]: Active
Activity [18]: Active

CC[C@H](C)[C@H](NC(=O)[C@@H](NC(=O)C(CC(=O)O)NC(=O)[C@@H]1CCCN1C(=O)[C@H](Cc1c[nH]cn1)NC(=O)[C@H](Cc1ccccc1)NC(=O)[C@H](Cc1ccc(O)cc1)NC(=O)CCOCCOCCNC(=O)CCCCCN1/C(=C\C=C\C2=[N+](C)c3ccccc3C2(C)C)C(C)(C)c2ccccc21)C(C)C)C(=O)N[C@@H](CCCNC(=N)N)C(=O)O (stereo not given in full) ({X1-PEG2}-YFHP[ξD]VIR-OH)
Activity [13]: 0.064
Activity ([1]; HEK293): inactive
Activity [3]: inactive
Activity [6]: inactive
Activity [19]: Active

H-YFHPDVIR-OH
Activity ([1]; HEK293): inactive
Activity [3]: inactive
Activity [6]: inactive
Activity [7]: inactive
